The test deals with T1, HTH-type transcriptional regulator MgrA (Staphylococcus aureus, UniProt P0C1S0).
T1 sequence (P0C1S0 whole entry): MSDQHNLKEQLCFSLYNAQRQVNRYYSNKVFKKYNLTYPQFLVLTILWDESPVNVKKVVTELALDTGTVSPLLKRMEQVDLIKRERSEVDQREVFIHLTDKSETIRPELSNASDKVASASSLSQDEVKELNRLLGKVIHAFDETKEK
The experiment in a line: Biochemical Assay. The note with it: pH 7.4.

Structures are written as SMILES.

Method: A fluorescence anisotropy (FA)-based biochemical assay that monitors MgrA-DNA binding. To determine the binding affinity of MgrA to the labeled DNA, different amounts of MgrA were added into the 96-well format plate.

Take `Cc1ccc(C)n1[C@@H](CC(=O)O)c1ccc2c(c1)OCO2` [MgrA inhibitor, 2]: the IC50 (as a rule, the concentration that inhibits the measured activity by half) came to 30 µM.

For the origin of these results see BindingDB's records for doi:10.1016/j.chembiol.2011.05.014 (The University of Chicago, 2011).
